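Test compounds were applied to cells in 96-well plates for 48 hours at 5 doses. At the TGI there is no net growth.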
What was measured:
Assay in all cases: DTP human tumour cell line panel, 48 h
[1] = system: CCRF-CEM leukemia
[2] = system: OVCAR-5 ovarian
[3] = system: SK-MEL-28 melanoma
[4] = system: SNB-75 CNS
[5] = system: U251 CNS
[6] = system: MALME-3M melanoma
[7] = system: CAKI-1 renal
[8] = system: IGROV1 ovarian
[9] = system: HS 578T breast
[10] = system: A549 NSCLC
[11] = system: HL-60(TB) leukemia
[12] = system: MCF7 breast
[13] = system: NCI/ADR-RES ovarian
[14] = system: TK-10 renal
[15] = system: MDA-N
[16] = system: T-47D breast
[17] = system: HOP-62 NSCLC
[18] = system: EKVX NSCLC
[19] = system: SR leukemia
[20] = system: MDA-MB-435

Row | Structure (SMILES) | TGI [1] | TGI [2] | TGI [3] | TGI [4] | TGI [5] | TGI [6] | TGI [7] | TGI [8] | TGI [9] | TGI [10] | TGI [11] | TGI [12] | TGI [13] | TGI [14] | TGI [15] | TGI [16] | TGI [17] | TGI [18] | TGI [19] | TGI [20]
1 | CCOC(CCNCC(OCC)OCC)OCC | > 10 µM | > 10 µM | > 10 µM | > 10 µM | > 10 µM | > 10 µM | > 10 µM | > 10 µM | > 10 µM | > 10 µM | > 10 µM | > 10 µM | > 10 µM | > 10 µM | > 10 µM | > 10 µM | > 10 µM | > 10 µM | > 10 µM | > 10 µM
2 | O=Cc1ccc2c(c1)CC1(C2)Cc2ccc3c(c2C1)CCC3 (stereo unspecified) | 21.1 µM | > 69.2 µM | 29.5 µM | 28.9 µM | 22.7 µM | 21.8 µM | 46.8 µM | 41.3 µM | 21.5 µM | > 100 µM | > 26.9 µM | 22.8 µM | 27.8 µM | 40.5 µM | 4.85 µM | > 85.3 µM | 27.7 µM | > 59.2 µM | 18.3 µM | 7.4 µM
3 | CCn1c(-c2cc(OC)cc(OC)c2)nc2c1C(=O)c1ccccc1C2=O | > 100 µM | > 100 µM | > 100 µM | > 100 µM | > 100 µM | > 100 µM |  | > 100 µM | > 100 µM | > 100 µM | > 100 µM | > 100 µM | > 100 µM | > 100 µM | > 100 µM | > 100 µM | > 100 µM | > 100 µM | > 100 µM | > 100 µM
4 | C[N+](C)([O-])CCC=C1c2ccccc2CCc2ccccc21 | 40.7 µM | > 100 µM | 98.7 µM | 75.4 µM | 33.8 µM | 45.4 µM | 79.4 µM | 33.1 µM | 64.9 µM | > 100 µM | 30.6 µM | 48.2 µM | 69.3 µM | > 100 µM | 65.3 µM | 77.7 µM | 34.9 µM | 59 µM | 39.3 µM | 38.1 µM
5 | CC1(CCCO)CCCCCC(C)(CCCO)C1=O (stereo unspecified) | > 100 µM | > 100 µM | > 100 µM | > 100 µM | > 100 µM | > 100 µM | > 100 µM | > 100 µM | > 100 µM | > 100 µM | > 100 µM | > 100 µM | > 100 µM |  | > 100 µM | > 100 µM | > 100 µM | > 100 µM | > 100 µM | > 100 µM
6 | COC(=O)Cc1cc(O)c(C/C=C(\C)CC/C=C(\C)C(O)C(=O)C=C(C)C)cc1O (stereo unspecified) | 10.3 µM | > 100 µM |  | 56.4 µM | 35.7 µM | 48.6 µM |  | 63 µM | > 100 µM | > 100 µM | 12 µM | 89.5 µM | 58.4 µM |  | > 100 µM | 43.2 µM | 41.6 µM | 66.8 µM | 41.6 µM | 45.4 µM
7 | O=C1N=c2ccccc2=C1c1c(O)[nH]c2ccccc12 | > 100 µM | 12.4 µM | > 100 µM | 35 µM | 24.1 µM | 35.5 µM | > 100 µM | > 100 µM | > 100 µM | > 100 µM |  | 25.3 µM | 48.2 µM | 72.7 µM | > 100 µM | 3.77 µM | > 100 µM | 71.6 µM | 17.8 µM | > 100 µM
8 | O=c1[nH]c(-c2ccc3ccccc3c2)nc2ccccc12 |  | > 100 µM | > 100 µM | 28.6 µM | > 100 µM | > 100 µM | > 100 µM | > 100 µM | > 100 µM | > 100 µM | > 100 µM | > 100 µM | > 100 µM | 13.4 µM | > 100 µM | > 100 µM | 50.2 µM | > 100 µM | > 100 µM | > 100 µM
9 | C=C1C[C@@H]2O[C@H]3[C@H]4[C@@H](C[C@@H](C)[C@@H](OC(C)=O)[C@H]42)[C@@H](C)CO[C@@]3(C)[C@H](OC(C)=O)C[C@H]1O | 49.5 µM | > 100 µM | > 100 µM | > 100 µM | > 100 µM | > 100 µM | > 100 µM | > 100 µM | > 100 µM | > 100 µM | 36.8 µM | > 100 µM | > 100 µM | > 100 µM | > 100 µM | > 100 µM |  | > 100 µM | > 100 µM | > 100 µM
10 | O=S1(=O)OCCOS(=O)(=O)C1F | > 100 µM | > 100 µM | > 100 µM | > 100 µM | > 100 µM | > 100 µM | > 100 µM |  | > 100 µM | > 100 µM | > 100 µM | > 100 µM | > 100 µM | > 100 µM | > 100 µM | > 100 µM | > 100 µM | > 100 µM | > 100 µM | > 100 µM

From PubChem BioAssay (NCI)
